Measurements as given in patent US12606541B2, “PPARg modulators and methods of use” (Eisai R&D Management Co., Ltd., priority 2020, dated 2026).
pIC50: −log10 of the molar value.

What was measured:
UM-UC-9 engineered cells = test: Cell proliferation / short-term viability assay, CellTiter-Glo 144 h; assay type: cell-based, human; conditions: read-out: CTGlo 144 h UMUC9.5, G150
Outline: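 UM-UC-9 engineered assay-ready cells seeded at 500 cells/well in high-glucose DMEM/10% FBS, treated from dose-response plates, grown at 37° C, 5% CO2. CellTiter-Glo 2.0 luminescence read on day 7, with a day-0 pretreatment plate as T0 reference and DMSO wells as negative control.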

His6-TEV-PPARγ-(234-505) = biological target: T1, His6-TEV-PPARγ-(234-505) (Homo sapiens, UniProt P37231); test: TR-FRET Assay to Measure Co-R Peptide Recruitment to PPARγ; assay type: biochemical; conditions: Co-R peptide (SMRT-ID2) recruitment; top final concentration 20 μM; read-out: TR-FRET i-Ag; AC50
T1 construct: The His6-TEV-PPARγ-(234-505) protein for assay was expressed and purified; TEV cleavage site (N); made in house
T1 sequence (P37231 234-505): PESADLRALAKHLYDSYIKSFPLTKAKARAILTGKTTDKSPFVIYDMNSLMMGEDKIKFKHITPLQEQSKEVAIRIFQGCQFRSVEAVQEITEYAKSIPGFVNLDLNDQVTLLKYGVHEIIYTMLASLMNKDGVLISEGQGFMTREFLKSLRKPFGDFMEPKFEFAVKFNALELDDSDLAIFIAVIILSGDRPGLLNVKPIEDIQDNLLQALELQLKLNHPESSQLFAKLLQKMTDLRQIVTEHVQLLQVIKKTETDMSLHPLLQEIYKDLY
Outline: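 His-tagged PPARγ (or controls) was preincubated with compound for 20 minutes at room temperature, then 5 nM anti-His terbium antibody and 200 nM FITC-labeled SMRT-ID2 corepressor peptide (final) were added for a further hour. TR-FRET signal was normalized to percent response using 500 nM T0070907 and DMSO controls.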

(1R,3S,5S)-8-[5-(5-fluoro-2-methoxypyridin-4-yl)-1H-pyrazole-3-carbonyl]-N-[(1r,4r)-4-(2-methoxyethoxy)-4-(trifluoromethyl)cyclohexyl]-8-azabicyclo[3.2.1]octane-3-carboxamide and (1R,3S,5S)-8-[5-(5-fluoro-2-methoxypyridin-4-yl)-1H-pyrazole-3-carbonyl]-N-[(1s,4s)-4-(2-methoxyethoxy)-4-(trifluoromethyl)cyclohexyl]-8-azabicyclo[3.2.1]octane-3-carboxamide [Example 304]
pIC50 (UM-UC-9 engineered cells): 6.70
AC50 (His6-TEV-PPARγ-(234-505)): 44.4 nM

(1R,3s,5S)-8-(5-(5-fluoro-2-methoxypyridin-4-yl)-1H-pyrazole-3-carbonyl)-N—((R)-1-(3-(trifluoromethyl)-1,2,4-oxadiazol-5-yl)ethyl)-8-azabicyclo[3.2.1]octane-3-carboxamide and (1R,3s,5S)-8-(5-(5-fluoro-2-methoxypyridin-4-yl)-1H-pyrazole-3-carbonyl)-N—(S)-1-(3-(trifluoromethyl)-1,2,4-oxadiazol-5-yl)ethyl)-8-azabicyclo[3.2.1]octane-3-carboxamide [Example 290]
pIC50 (UM-UC-9 engineered cells): 6.08
AC50 (His6-TEV-PPARγ-(234-505)): 400 nM

(1R,3s,5S)—N-(3-chlorobenzyl)-8-(5-(5-fluoro-2-methoxypyridin-4-yl)-1H-pyrazole-3-carbonyl)-8-azabicyclo[3.2.1]octane-3-carboxamide and (1R,3r,5S)—N-(3-chlorobenzyl)-8-(5-(5-fluoro-2-methoxypyridin-4-yl)-1H-pyrazole-3-carbonyl)-8-azabicyclo[3.2.1]octane-3-carboxamide [Example 160]
pIC50 (UM-UC-9 engineered cells): 7.69
AC50 (His6-TEV-PPARγ-(234-505)): 11.6 nM

(1R,3s,5S)—N-((1r,4R)-4-ethoxy-4-(trifluoromethyl)cyclohexyl)-8-(5-(5-fluoro-2-methoxypyridin-4-yl)-1H-pyrazole-3-carbonyl)-8-azabicyclo[3.2.1]octane-3-carboxamide and (1R,3s,5S)—N-((1s,4S)-4-ethoxy-4-(trifluoromethyl)cyclohexyl)-8-(5-(5-fluoro-2-methoxypyridin-4-yl)-1H-pyrazole-3-carbonyl)-8-azabicyclo[3.2.1]octane-3-carboxamide [Example 303]
pIC50 (UM-UC-9 engineered cells): 7.38
AC50 (His6-TEV-PPARγ-(234-505)): 7.3 nM

(2S,4R)-1-(5-(5-fluoro-2-methoxypyridin-4-yl)-1H-pyrazole-3-carbonyl)-N-((1r,4R)-4-hydroxy-4-(trifluoromethyl)cyclohexyl)-2-(trifluoromethyl)piperidine-4-carboxamide and (2S,4S)-1-(5-(5-fluoro-2-methoxypyridin-4-yl)-1H-pyrazole-3-carbonyl)-N-((1r,4S)-4-hydroxy-4-(trifluoromethyl)cyclohexyl)-2-(trifluoromethyl)piperidine-4-carboxamide [Example 367]
pIC50 (UM-UC-9 engineered cells): 7.92
AC50 (His6-TEV-PPARγ-(234-505)): 22 nM

(R)-4-(5-(5-fluoro-2-methoxy-3-methylpyridin-4-yl)-1H-pyrazole-3-carbonyl)-N-((1r,4R)-4-hydroxy-4-(trifluoromethyl)cyclohexyl)-4-azaspiro[2.5]octane-7-carboxamide and (S)-4-(5-(5-fluoro-2-methoxy-3-methylpyridin-4-yl)-1H-pyrazole-3-carbonyl)-N-((1r,4S)-4-hydroxy-4-(trifluoromethyl)cyclohexyl)-4-azaspiro[2.5]octane-7-carboxamide [Example 493]
pIC50 (UM-UC-9 engineered cells): 7.05
AC50 (His6-TEV-PPARγ-(234-505)): 12.6 nM

(S)-1-(5-(5-fluoro-2-methoxypyridin-4-yl)-1H-pyrazole-3-carbonyl)-N-((1r,4S)-4-hydroxy-4-(trifluoromethyl)cyclohexyl)-2,2-dimethylpiperidine-4-carboxamide and (R)-1-(5-(5-fluoro-2-methoxypyridin-4-yl)-1H-pyrazole-3-carbonyl)-N-((1r,4R)-4-hydroxy-4-(trifluoromethyl)cyclohexyl)-2,2-dimethylpiperidine-4-carboxamide [Example 407]
pIC50 (UM-UC-9 engineered cells): 7.64
AC50 (His6-TEV-PPARγ-(234-505)): 30.3 nM

(S)-4-(5-(2-chloro-5-fluoropyridin-4-yl)-1H-pyrazole-3-carbonyl)-N-((1r,4S)-4-hydroxy-4-(trifluoromethyl)cyclohexyl)-4-azaspiro[2.5]octane-7-carboxamide and (R)-4-(5-(2-chloro-5-fluoropyridin-4-yl)-1H-pyrazole-3-carbonyl)-N-((1r,4R)-4-hydroxy-4-(trifluoromethyl)cyclohexyl)-4-azaspiro[2.5]octane-7-carboxamide [Example 529]
pIC50 (UM-UC-9 engineered cells): 7.47
AC50 (His6-TEV-PPARγ-(234-505)): 10.6 nM

(S)-4-(5-(5-fluoro-2-methoxypyridin-4-yl)-1H-pyrazole-3-carbonyl)-N-((1r,4S)-4-hydroxy-4-(perfluoroethyl)cyclohexyl)-4-azaspiro[2.5]octane-7-carboxamide and (S)-4-(5-(5-fluoro-2-methoxypyridin-4-yl)-1H-pyrazole-3-carbonyl)-N-((1s,4R)-4-hydroxy-4-(perfluoroethyl)cyclohexyl)-4-azaspiro[2.5]octane-7-carboxamide [Example 373]
pIC50 (UM-UC-9 engineered cells): 8.52
AC50 (His6-TEV-PPARγ-(234-505)): 11.7 nM

(S)-4-(5-(5-fluoro-2-methoxypyridin-4-yl)-1H-pyrazole-3-carbonyl)-N-((1s,4R)-4-(hydroxymethyl)-4-(trifluoromethyl)cyclohexyl)-4-azaspiro[2.5]octane-7-carboxamide and (S)-4-(5-(5-fluoro-2-methoxypyridin-4-yl)-1H-pyrazole-3-carbonyl)-N-((1r,4S)-4-(hydroxymethyl)-4-(trifluoromethyl)cyclohexyl)-4-azaspiro[2.5]octane-7-carboxamide [Example 408]
pIC50 (UM-UC-9 engineered cells): 8.14
AC50 (His6-TEV-PPARγ-(234-505)): 6.3 nM

(S)-4-(5-(5-fluoro-2-methoxypyridin-4-yl)-1H-pyrazole-3-carbonyl)-N—(((S)-3-(trifluoromethyl)-5,6-dihydro-8H-[1,2,4]triazolo[3,4-c][1,4]oxazin-6-yl)methyl)-4-azaspiro[2.5]octane-7-carboxamide and (S)-4-(5-(5-fluoro-2-methoxypyridin-4-yl)-1H-pyrazole-3-carbonyl)-N—(((R)-3-(trifluoromethyl)-5,6-dihydro-8H-[1,2,4]triazolo[3,4-c][1,4]oxazin-6-yl)methyl)-4-azaspiro[2.5]octane-7-carboxamide [Example 357]
pIC50 (UM-UC-9 engineered cells): 5.66
AC50 (His6-TEV-PPARγ-(234-505)): 45.1 nM

(S)-4-(5-(5-fluoro-2-methoxypyridin-4-yl)-1H-pyrazole-3-carbonyl)-N—((S)-1-(oxetan-3-yl)piperidin-3-yl)-4-azaspiro[2.5]octane-7-carboxamide and (S)-4-(5-(5-fluoro-2-methoxypyridin-4-yl)-1H-pyrazole-3-carbonyl)-N—((R)-1-(oxetan-3-yl)piperidin-3-yl)-4-azaspiro[2.5]octane-7-carboxamide [Example 421]
pIC50 (UM-UC-9 engineered cells): 6.44
AC50 (His6-TEV-PPARγ-(234-505)): 182 nM

(S)—N-((1s,4R)-4-(1,1-difluoroethyl)-4-hydroxycyclohexyl)-4-(5-(5-fluoro-2-methoxypyridin-4-yl)-1H-pyrazole-3-carbonyl)-4-azaspiro[2.5]octane-7-carboxamide and (S)—N-((1r,4S)-4-(1,1-difluoroethyl)-4-hydroxycyclohexyl)-4-(5-(5-fluoro-2-methoxypyridin-4-yl)-1H-pyrazole-3-carbonyl)-4-azaspiro[2.5]octane-7-carboxamide [Example 375]
pIC50 (UM-UC-9 engineered cells): 8.80
AC50 (His6-TEV-PPARγ-(234-505)): 6.4 nM
